Source: paper PMC2653189 (PLoS ONE, 2009)
Read-outs that look alike come from different tables or passages of the source.

What was measured:
[1] = test system: IFN-γ-mediated Stat1 phosphorylation; experiment: Immunoblot of IFN-γ-mediated Stat1 phosphorylation in HepG2 cells; format: cell-based, human; settings: compound 300 µM 1 hour, IFN-γ 30 ng/ml 30 min
Method: (§1) The human hepatocellular carcinoma cell line (HepG2) was grown in 6-well plates under standard conditions. Cells were pretreated with compounds (0, 1, 3, 10, 30, 100 and 300 µM) for 1 hour then stimulated under optimal conditions with either interleukin-6 (IL-6; 30 ng/ml for 30 min) to activate Stat3 or interferon gamma (IFN-γ; 30 ng/ml for 30 min) to activate Stat1 [28]. Cultures were then harvested and proteins extracted using high-salt buffer, as described. Briefly, extracts were mixed with 2× sodium dodecyl sulfate (SDS) sample buffer (125 mM Tris-HCL pH 6.8; 4% SDS; 20% glycerol; 10% 2-mercaptoethanol) at a 1∶1 ratio and heated for 5 minutes at 100°C. Proteins (20 µg) were separated by 7.5% SDS-PAGE and transferred to polyvinylidene fluoride (PVDF) membrane (Millipore, Waltham, MA) and immunoblotted. Prestained molecular weight markers (BioRad; Hercules, CA) were included in each gel. Membranes were probed serially with antibody against Stat1 pY701 or Stat3 pY705 followed by antibody against Stat1 or Stat3 (Transduction labs, Lexington, KY) then antibody against β–actin (Abcam, Cambridge, MA). Membranes were stripped between antibody probing using Restore™ Western Blot Stripping Buffer (Thermo Fisher Scientific Inc., Waltham, MA) per the manufacturer's instructions. Horseradish peroxidase-conjugated goat-anti-mouse IgG was used as the secondary antibody (Invitrogen Carlsbad, CA) and the membranes were developed with enhanced chemiluminescence (ECL) detection system (Amersham Life Sciences Inc.; Arlington Heights, IL.).
Figure 2 Effect of compounds on ligand-mediated Stat3 and Stat1 phosphorylation. […] Cells were then stimulated with IL-6 (30 ng/ml) for 30 min. Protein extracts of cells were separated by SDS-PAGE, blotted and developed serially with antibodies to pStat3, total Stat3 and β-actin. Blots were stripped between each antibody probing. Band intensities were quantified by densitometry. The value of each pStat3 band was divided by its corresponding total Stat3 band intensity; the results were normalized to the DMSO-treated control value. This value was plotted as a function of the log compound concentration. The best-fitting curve was determined using 4-Parameter Logistic Model/Dose Response/XLfit 4.2, IDBS software and was used to calculate the IC50 value (Table 1). Each panel is representative of 3 or more experiments. In panel G, HepG2 cells were pretreated with DMSO alone or DMSO containing each of the compounds at a concentration of 300 µM for 60 min. Cells were then stimulated with IFN-γ (30 ng/ml) for 30 min. Protein extracts of cells were separated by SDS-PAGE and immunoblotted serially with antibodies to pStat1, total Stat1 and β-actin. Blots were stripped between each immunoblotting. The results shown are representative of 2 or more experiments.

[2] = test system: IL-6-mediated phosphorylation of Stat3; experiment: Immunoblot of IL-6-mediated Stat3 phosphorylation in HepG2 cells; format: cell-based; settings: Homo sapiens, compound 60 min, then IL-6 30 ng/ml 30 min, read-out: pStat3 IC50, inhibition of IL-6-mediated Stat3 phosphorylation
Method: as §1
Figure 2 Effect of compounds on ligand-mediated Stat3 and Stat1 phosphorylation. […] Cells were then stimulated with IL-6 (30 ng/ml) for 30 min. Protein extracts of cells were separated by SDS-PAGE, blotted and developed serially with antibodies to pStat3, total Stat3 and β-actin. Blots were stripped between each antibody probing. Band intensities were quantified by densitometry. […] The best-fitting curve was determined using 4-Parameter Logistic Model/Dose Response/XLfit 4.2, IDBS software and was used to calculate the IC50 value (Table 1). […]

[3] = test system: IL-6-mediated Stat3 nuclear translocation (GFP-Stat3α); experiment: HTFM nuclear translocation assay in MEF/GFP-Stat3α cells; format: cell-based, murine; settings: Mus musculus, compound 1 hour, then IL-6 200 ng/ml and IL-6sR 250 ng/ml 30 min, read-out: HTFM IC50, inhibition of IL-6-mediated Stat3 nuclear translocation
Method: Confocal and high-throughput fluorescence microscopy (HTFM) of MEF/GFP-Stat3α cells were performed as described. Briefly, for confocal fluorescence microscopy, cells were grown in 6-well plates containing a cover slip. For HTFM, cells were seeded into 96-well CC3 plates at a density of 5,000 cells/well using an automated plating system. Cells were cultured under standard conditions until 85–90% confluent. Cells were pre-treated with compound for 1 hour at 37°C then stimulated with IL-6 (200 ng/ml) and IL-6sR (250 ng/ml) for 30 minutes to provide optimal Stat3 activation and nuclear translocation in these cells, as described. Cells were fixed with 4% formaldehyde in PEM Buffer (80 mM Potassium PIPES, pH 6.8, 5 mM EGTA pH 7.0, 2 mM MgCl2) for 30 minutes at 4°C, quenched in 1 mg/ml of NaBH4 (Sigma) in PEM buffer and counterstained for 1 min in 4,6-diamidino-2-phenylindole (DAPI; Sigma; 1 mg/ml) in PEM buffer. Cover slips were examined by confocal fluorescent microscopy. Plates were analyzed by automated HTFM using the Cell Lab IC Image Cytometer (IC100) platform and Cytoshop Version 2.1 analysis software (Beckman Coulter). Nuclear translocation is quantified by using the fraction localized in the nucleus (FLIN) measurement. FLIN values were normalized by subtracting the FLIN for unstimulated cells then dividing this difference by the maximum difference (delta, Δ) in FLIN (FLIN in cells stimulated with IL-6/sIL-6R in the absence of compound minus FLIN of unstimulated cells). This ratio was multiplied by 100 to obtain the percentage of maximum difference in FLIN and was plotted, where indicated, as a function of the log compound concentration. The best-fitting curve and IC50 value were determined using 4-Parameter Logistic Model/Dose Response/XLfit 4.2, IDBS software.
Figure 4 Inhibition of cytoplasmic-to-nuclear translocation of Stat3 assessed by confocal and high-throughput fluorescence microscopy (HTFM). […] Coverslips were examined by confocal fluorescent microscopy using filters to detect GFP (column one), DAPI (column two) or both (merge; column three). In panel B, MEF-GFP-Stat3 cells were grown in 96-well plates with optical glass bottoms and pre-treated with the indicated compound at the indicated concentrations in quadruplicate for 1 hour then stimulated with IL-6 (200 ng/ml) and IL-6sR (250 ng/ml) for 30 minutes. Cells were fixed and the plates were examined by high-throughput microscopy to determine the fluorescence intensity in the nucleus (FLIN). The percent of maximum change (delta, Δ) in FLIN was calculated as described in the Methods and plotted as a function of the log of the compound concentration. […] Best-fit curves were determined using 4-Parameter Logistic Model/Dose Response/XLfit 4.2, IDBS software and were used to calculate the IC50 values (Table 2).

[4] = test system: breast cancer cell lines tested; experiment: Apoptosis assay, all breast cancer cell lines tested; format: cell-based, Human; settings: any of the breast cancer cell lines tested; data not shown
Method: Human breast carcinoma cell lines MDA-MB-468, MDA-MB-231, MBA-MD-435 and MCF7 were kindly provided by Dr. Powel H. Brown (Breast Cancer Center, Baylor College of Medicine). Breast cancer cell line, MDA-MB-453 was kindly provided by Dr. Shou Jiang (Breast Cancer Center, Baylor College of Medicine). All cell lines were grown in DMEM medium supplemented with 10% fetal bovine serum (FBS), 25,000 units penicillin G, 25,000 µg streptomycin, and 131.4 mg L-Glutamine and cultured in the incubator under the condition of 95% air, 5% CO2 at 37°C [33]. Cells were seeded at 2,500 cells/cm^2 into 12-well plates. At 80% confluency, cells were washed with PBS and supplemented with fresh medium containing compound or the topoisomerase I-inhibitor, camptothecin, at 0, 0.1, 0.3, 1, 3, 10, 30, 100, 300 µM. At 24 hours, treatment was terminated by removing the medium from each well. Cells were lysed with cell lysis buffer (600 µl for 30 minutes at 25°C). […] The percent maximum nucleosome level was calculated by dividing the nucleosome level by the maximum nucleosome level achieved in the assay and multiplying by 100. This value was plotted as a function of the log compound concentration and the best-fitting curve and EC50 value determined using 4-Parameter Logistic Model/Dose Response/XLfit 4.2, IDBS software.

Stat3 [5] = target: T1, Stat3 (Homo sapiens, UniProt P40763); experiment: Stat3/pY-peptide binding assay (SPR, BIAcore); settings: recombinant Stat3 500 nM; immobilized EGFR Y1068 phosphododecapeptide; 25°C; read-out: SPR IC50, inhibition of Stat3 binding to pY peptide ligand
Method: A control (Stat3 with DMSO but without compound) was run at the beginning and the end of each cycle (40 sample injections) to ensure that the integrity of the sensor chip was maintained throughout the cycle run. The average of the two controls was normalized to 100% and used to evaluate the effect of each compound on Stat3 binding. Responses were normalized by dividing the value at 2 min by the response obtained in the absence of compounds at 2 min and multiplying by 100.

MDA-MB-231 xenografts = test system: MDA-MB-231 xenografts; set-up: method as in PMID 17463090; settings: 5 mg/kg every 2–3 days; cited from earlier work
Stat3 [6] = target: T1, Stat3; set-up: method as in PMID 16220982; settings: fluorescence polarization; read-out: IC50 inhibition of Stat3 binding to pY-peptide; cited from earlier work

T1 sequence (P40763 whole entry, species assumed): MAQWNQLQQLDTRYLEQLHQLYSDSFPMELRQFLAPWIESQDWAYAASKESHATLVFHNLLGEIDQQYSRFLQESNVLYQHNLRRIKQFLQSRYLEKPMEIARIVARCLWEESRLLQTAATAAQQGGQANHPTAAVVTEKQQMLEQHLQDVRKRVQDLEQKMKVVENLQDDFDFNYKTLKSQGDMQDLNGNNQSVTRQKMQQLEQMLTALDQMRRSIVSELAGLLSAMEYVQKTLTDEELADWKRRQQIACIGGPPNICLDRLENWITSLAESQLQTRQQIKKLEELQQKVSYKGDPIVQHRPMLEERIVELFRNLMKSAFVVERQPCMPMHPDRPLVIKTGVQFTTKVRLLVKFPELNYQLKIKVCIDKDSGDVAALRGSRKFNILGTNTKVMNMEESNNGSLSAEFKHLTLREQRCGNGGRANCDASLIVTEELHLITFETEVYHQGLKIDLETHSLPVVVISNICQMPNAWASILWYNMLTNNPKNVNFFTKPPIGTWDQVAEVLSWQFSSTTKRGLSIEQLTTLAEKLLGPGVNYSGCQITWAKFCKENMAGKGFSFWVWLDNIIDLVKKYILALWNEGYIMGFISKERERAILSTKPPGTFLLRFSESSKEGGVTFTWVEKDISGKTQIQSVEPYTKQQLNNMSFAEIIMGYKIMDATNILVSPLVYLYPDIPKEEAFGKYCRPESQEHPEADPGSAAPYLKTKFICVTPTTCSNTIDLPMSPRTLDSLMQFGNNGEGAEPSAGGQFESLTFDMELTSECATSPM

Question: Which “Block of IFN-γ-stimulated Stat1 phosphorylation” value [1] does the source give for `CCOc1cc(C=C2C(=O)c3ccccc3C2=O)cc(Cl)c1OCc1cccc(C(=O)O)c1` [Cpd3-2, 3-({2-chloro-4-[(1,3-dioxo-1,3-dihydro-2H-inden-2-ylidene)methyl]-6-ethoxyphenoxy}methyl)benzoic acid] here?
Answer: did not

Question: And the IC50 [2]?
Answer: 144 µM

Question: What about the IC50 [3] of the same compound?
Answer: 150 µM

Question: What about the “Apoptosis induction (in words)” value [4] of the same compound?
Answer: neither Cpd3-2 nor Cpd3-7 induced apoptosis

Question: And the IC50 (Stat3 [5])?
Answer: 256 µM

Question: For `Cc1ccc(S(=O)(=O)OCC(=O)Nc2ccc(C(=O)O)c(O)c2)cc1` [S3I-201], which Xenograft growth (MDA-MB-231 xenografts) is on record?
Answer: inhibited growth

Question: Which IC50 (Stat3 [6]) does the source give for “hydrocinnamoyl-Tyr(PO3H2)-Leu-cis-3,4-methanoPro-Gln-NHB” here?
Answer: 0.125 µM
